The values below come from article PMC2603307 (Chemistry & biology, 2008).

This assay concerns the target T1, E. coli GCH I (FolE, B2153) (Escherichia coli, UniProt P0A6T5).
T1 sequence (P0A6T5 2-222): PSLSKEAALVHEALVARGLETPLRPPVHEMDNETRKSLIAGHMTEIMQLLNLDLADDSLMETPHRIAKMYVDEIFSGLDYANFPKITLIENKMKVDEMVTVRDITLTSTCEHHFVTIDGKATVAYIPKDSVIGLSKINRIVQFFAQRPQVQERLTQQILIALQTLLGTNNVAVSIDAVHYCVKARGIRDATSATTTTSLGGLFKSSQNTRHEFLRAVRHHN
Nature of the assay: LC-MS of product. It counts as biochemical. The settings on record: 20 mM Tris-SO4 pH 8.0, 2 mM dithiothreitol, 0.1 M KCl, 100 uM GTP, 120 min, ambient temperature.

Structures are written as SMILES.

Take `Nc1nc2c(ncn2[C@@H]2O[C@H](COP(=O)(O)OP(=O)(O)OP(=O)(O)O)[C@@H](O)[C@H]2O)c(=O)[nH]1` [GTP]: the LC-MS of product entry is recorded as “product produced by ToyD with that produced with E. coli GCH I (FolE, B2153)”.
